Columns and labels:
[1] = test system: AhR; experiment: AhR activation in Caco-2 cells through CYP1A1 mRNA expression
Procedure: Caco-2 cells from American Type Culture Collection (ATCC) were plated in a sterile tissue culture treated 96-well plate (ThermoFisher) at […] per well, and grown overnight at 37° C., 5% CO2 in DMEM complete (Gibco) in order to achieve confluence. After the incubation medium was aspirated from the Caco-2 monolayers, tissues were then washed with 200 μL of warmed PBS solution, and subsequently 190 μL of pre-warmed growth medium was added to each well. Compounds of interest were diluted at a 20× concentration in growth medium containing 2% DMSO, and 10 μL of compound solutions were added to respective wells in triplicate. Compounds where incubated overnight at 37° C., 5% CO2. 2-(1′H-indole-3′-carbonyl)-thiazole-4-carboxylic acid methyl ester (ITE) was used as the positive control for AhR activation at 1 and 100 μM concentrations. At the end of the incubation, medium was aspirated off of the Caco-2 cells, and washed with 100 μL of cold PBS solution. RNA was extracted via the TaqMan™ Gene Expression Cells-to-CT™ Kit (ThermoFisher) according to the manufacturers protocol. The QuantStudio 6 Flex (Applied Biosciences) was used to analyze mRNA levels of CYP1A1 using GAPDH as the endogenous control. TaqMan™ probe sets for both genes were acquired from ThermoFisher. Samples were run in triplicate and data was analyzed using the QuantStudio software and reported as linear (Table 1) and log 2(ΔΔCT) values. Statistical analysis was performed using a two-tailed t-test comparing CYP1A1 levels in the presence of each individual compound to the vehicle negative control.

[2] = test system: Mouse 3T3-L1 cells; experiment: Mouse adipocyte lipolysis assay; type: cell-based; details: Mus musculus, 3T3-L1, 24 hours, read-out: Lipolysis Free Fatty Acids % DMSO
Procedure: Once the cells became confluent, they were seeded into a tissue culture treated 96 well plate. […] After 14 days of differentiation, cells were treated with compounds of interest. After 24 hours post-treatment, the cell viability was assessed using CellTiter-Glo Luminescent Cell Viability Assay from Promega, and lipolysis was determined using Lipolysis Assay Kit from ZenBio.

[3] = test system: Primary human subcutaneous adipocytes; experiment: Glucose uptake in human subcutaneous adipocytes, insulin resistant model; type: cell-based
Procedure: As described above, primary human subcutaneous adipocytes were differentiated for two weeks prior to treatment. To induce an insulin resistant state, cells were treated in serum free Dulbecco's Modified Eagle Medium (high glucose) and […] for 24 hours. Cells were simultaneously treated with compounds diluted in DMSO for 24 hours. As described above, after 24 hours, media was exchanged for assay buffer and the compounds were added again but in the presence of approximately 1 nM insulin. Cells were washed and lysed after 2 hours and glucose uptake was measured. […] Statistical changes in glucose uptake were determined by way ANOVA and compared to DMSO.

[4] = test system: Caco-2 colonocytes; experiment: Human Caco-2 barrier integrity assay (TEER); type: cell-based; details: 48 hours
Procedure: Caco-2 colonocytes were maintained at 37° C. and 5% CO2 in Dulbecco's Modified Eagle Medium (DMEM) and supplemented with 10% FBS, 1% NEAA, 1% penicillin-streptomycin. At 70-80% confluency, cells were trypsinized and seeded in 0.4 cm^2 transwell collagen I coated membranes with supplemented DMEM in both apical and basolateral compartments. Cells were seeded at a density of 200,000 cells per well and maintained for 10 days to form a polarized barrier with a TransEpithelial Electrial Resistance (TEER) reading above 1000Ω. On the first day of the assay, initial TEER readings were taken and cytokines were added to the basolateral media (50 ng/mL TNFα, 25 ng/mL IFNγ and 10 ng/mL IL-1β) to reduce barrier integrity while compounds diluted in (dimethylsulfoxide) DMSO were added to the apical media in triplicate. After 48 hours, TEER readings were taken again and viability was measured by CellTiter 96® AQueous One Solution Cell Proliferation Assay (Promega). The percent change in TEER over the 48 hours was determined and normalized to the 0.1% DMSO control (Table 6).

[5] = test system: Human Peripheral Blood Monocytes (PBMCs); experiment: Cytokine release from human PBMCs; type: cell-based; details: 100 μM, LPS, 24 hours
Procedure: Human donor blood (8 mL) was collected in sodium citrate CPT tubes and centrifuged at 1,600×g for 20 minutes at room temperature. […] PBMCs samples were centrifuged at 400×g for 10 minutes at 10° C. […] PBMCs were filtered through a 70 micron mesh to remove any cellular debris. […] PBMCs in a 96-well plate were rested for 30 minutes in a 37° C., 5% CO2 incubator, then subsequently treated with 10 μl of indicated compound. After 2 hours 10 μL of LPS (O111:B4) 1 mg/mL was added to test wells. After 24 hours of incubation at 37° C., 5% CO2, 100 μL of cell supernatant was collected and transferred to a 96-well plate (non-tissue treated, flat bottom). The plate was centrifuged at 350×g for 5 minutes at room temperature, and then the clear supernatant transferred to a new 96-well plate (non-tissue treated, flat bottom). The remaining cells were tested for viability using CellTiter-Glo® Luminescent Cell Viability Assay (Promega). The supernatant was analyzed for TNFα, IL-6 and IL-1β (kit LXSAHM-03; R&D Systems), using Luminex Immunoassay Technology (MAGPIX System). Cytokine levels of LPS treated DMSO control samples were set to 100%, and compound treated samples were expressed relative to this (Table 13).

[6] = test system: Primary human subcutaneous adipocytes; experiment: Glucose uptake in human subcutaneous adipocytes, insulin sensitive model; type: cell-based
Procedure: Primary human subcutaneous adipocytes (Zen Bio, Research Triangle Park, N.C.) were differentiated for two weeks prior to treatment. Cells were treated with indicated compounds diluted in (dimethyl-sulfoxide) DMSO in serum free medium for 24 hours in triplicate. After 24 hours, media was exchanged for assay buffer and the compounds were added again but in the presence of approximately 1 nM insulin. Glucose uptake was initiated with the addition of a cocktail containing 2-deoxyglucose and ^3H-2-deoxyglucose and allowed to incubate for 2 hours. Cells were washed, lysed and glucose uptake was measured as counts per well. As an assay control, 100 nM of insulin was used during the 2 hours of glucose uptake. […] Statistical changes in glucose uptake were determined by way ANOVA and compared to DMSO.

[7] = test system: Mouse myocyte; experiment: Mouse myocyte lipolysis assay; type: cell-based; details: Mus musculus, read-out: Free glycerol % DMSO
Procedure: Cells were obtained from ATCC and cultured in Dulbecco's Modified Eagle's medium (DMEM) containing 20% fetal bovine serum and 1% penicillin/streptomycin at 37° C. in an incubator with 5% CO2. Once the cells became confluent, they were seeded into a tissue culture treated 96 well plate. The next day, the medium containing DMEM with 2% equine serum was used to start differentiation. Once cells were fully differentiated, they were treated with indicated compounds.

[8] = test system: naïve CD4+ T cells; experiment: Human regulatory T cell differentiation assay; type: cell-based; details: 6 days
Procedure: Peripheral blood mononuclear cells (PBMCs) from whole blood donated by health volunteers were separated by Ficoll-Paque gradient centrifugation and naïve CD4^+ T cells were subsequently isolated using magnet beads (EasySep™ Human Naïve CD4^+ T Cell Isolation Kit, Cambridge, Mass.). For regulatory T cell (Treg) differentiation assay, naïve CD4^+ T cells were cultured (1-10×10^4 cells) in CTS OpTmizer medium for 6 days and stimulated with 5 ng/ml TGF-β, 100 U/ml IL-2, and ImmunoCult™ Human […] T Cell Activator; Stemcell #10990) with/without our Compounds. Cell viability was determined using a viability dye (eBioscience Fixable Viability Dye eFluor 780: ThermoFisher 65-0865-14) at 1:500 dilution. The cells were gated for Treg, defined as Live, CD11c^−, CD14^−, CD19^−, CD8^−, CD4^+, CD3^+, CD25^+, FOXP3^+. Percent (%) Tregs were calculated as percentage of CD4^+, CD25^+, FOXP3^+ cells over total CD4^+ T cells. Statistical analysis was performed with GraphPad Prism Software Using One-Way ANOVA.

[9] = Homo sapiens, CD4+ T, 144 h, 1 uM, read-out: Treg induction % DMSO

Cn1cc(C[C@H](N)C(=O)O)c2ccccc21 [1-methylindole-3-alanine]
Average CYP1A1 mRNA levels ([1]; Conc. 10.0 μM): + (+ = >2-fold Vehicle)
Average CYP1A1 mRNA levels ([1]; Conc. 100.0 μM): +++ (+++ = >10-fold Vehicle)

CC(=O)O [Acetate, acetic acid]
activity at 1000 µM ([2]; 1 mM): 50 to 70%
activity at 3000 µM ([2]; 3 mM): 50 to 70%
Insulin Resistant % DMSO (glucose uptake) ([3]; 1 mM): = (50%> ≤110%: =)
Insulin Resistant % DMSO (glucose uptake) ([3]; 3 mM): = (50%> ≤110%: =)
% Change in TEER from DMSO ([4]; 1 mM + cytokines): − (≤125%: −)
% Change in TEER from DMSO ([4]; 3 mM + cytokines): − (≤125%: −)
IL6 % DMSO control [5]: = ((=) 90%≥ <110% DMSO)
ILβ % DMSO control [5]: = ((=) 90%≥ <110% DMSO)
TNFα % of DMSO control [5]: = ((=) 90%≥ <110% DMSO)
Insulin Sensitive % DMSO (glucose uptake) ([6]; 1 mM): = (50%> ≤110%: =)
Insulin Sensitive % DMSO (glucose uptake) ([6]; 3 mM): = (50%> ≤110%: =)
activity at 1000 µM ([7]; 1 mM): 90 to 100%
activity at 3000 µM ([7]; 3 mM): 90 to 100%
Cell viability % DMSO ([8]; 1 mM): = (90%≥ ≤110%: =)
Cell viability % DMSO ([8]; 3 mM): = (90%≥ ≤110%: =)
activity at 1000 µM ([8]; Homo sapiens, CD4+ T, 144 h, 1 mM, read-out: Treg induction % DMSO): 110 to 130%
activity at 3000 µM ([8]; Homo sapiens, CD4+ T, 144 h, 3 mM, read-out: Treg induction % DMSO): > 130%

O=C(O)c1ccccc1 [Benzoic acid]
Average CYP1A1 mRNA levels ([1]; Conc. 10.0 μM): + (+ = >2-fold Vehicle)
Average CYP1A1 mRNA levels ([1]; Conc. 100.0 μM): + (+ = >2-fold Vehicle)

COC(=O)c1csc(C(=O)c2c[nH]c3ccccc23)n1 [ITE, 2-(1′H-indole-3′-carbonyl)-thiazole-4-carboxylic acid methyl ester]
Average CYP1A1 mRNA levels ([1]; Conc. 1.0 μM): +++ (+++ = >10-fold Vehicle)

O=c1c(O)c(-c2ccc(O)c(O)c2)oc2cc(O)cc(O)c12 [Quercetin, quercetin]
activity at 0.1 µM ([2]; 100 nM): 50 to 70%
activity at 1 µM [2]: 50 to 70%
Insulin Resistant % DMSO (glucose uptake) ([3]; 100 nM): = (50%> ≤110%: =)
Insulin Resistant % DMSO (glucose uptake) ([3]; 1 μM): = (50%> ≤110%: =)
% Change in TEER from DMSO ([4]; 1 μM + cytokines): + (125%> ≤150%: +)
% Change in TEER from DMSO ([4]; 100 μM + cytokines): − (≤125%: −)
IL6 % DMSO control [5]: + ((+) 50%≥ <90% DMSO)
ILβ % DMSO control [5]: + ((+) 50%≥ <90% DMSO)
TNFα % of DMSO control [5]: + ((+) 50%≥ <90% DMSO)
Insulin Sensitive % DMSO (glucose uptake) ([6]; 100 nM): = (50%> ≤110%: =)
Insulin Sensitive % DMSO (glucose uptake) ([6]; 1 μM): = (50%> ≤110%: =)
activity at 0.1 µM ([7]; 100 nM): 70 to 90%
activity at 1 µM [7]: 70 to 90%
Cell viability % DMSO ([8]; 100 nM): = (90%≥ ≤110%: =)
Cell viability % DMSO ([8]; 1 uM): = (90%≥ ≤110%: =)
activity at 0.1 µM ([8]; Homo sapiens, CD4+ T, 144 h, 100 nM, read-out: Treg induction % DMSO): 90 to 110%
activity at 1 µM [8, 9]: 90 to 110%

Oc1ccc(C=Cc2cc(O)cc(O)c2)cc1 [Resveratrol, resveratrol]
activity at 1 µM [2]: 70 to 90%
activity at 10 µM ([2]; 10 μM): 90 to 100%
Insulin Resistant % DMSO (glucose uptake) ([3]; 10 μM): = (50%> ≤110%: =)
Insulin Resistant % DMSO (glucose uptake) ([3]; 100 μM): − (<50%: −)
% Change in TEER from DMSO ([4]; 10 μM + cytokines): − (≤125%: −)
% Change in TEER from DMSO ([4]; 100 μM + cytokines): +++ (200%>: +++)
IL6 % DMSO control [5]: + ((+) 50%≥ <90% DMSO)
ILβ % DMSO control [5]: = ((=) 90%≥ <110% DMSO)
TNFα % of DMSO control [5]: + ((+) 50%≥ <90% DMSO)
Insulin Sensitive % DMSO (glucose uptake) ([6]; 10 μM): = (50%> ≤110%: =)
Insulin Sensitive % DMSO (glucose uptake) ([6]; 100 μM): − (<50%: −)
activity at 1 µM [7]: 70 to 90%
activity at 10 µM ([7]; 10 μM): 50 to 70%
Cell viability % DMSO ([8]; 1 uM): − (<90%: −)
Cell viability % DMSO ([8]; 10 uM): − (<90%: −)
activity at 1 µM [8, 9]: 110 to 130%
activity at 10 µM ([8]; Homo sapiens, CD4+ T, 144 h, 10 uM, read-out: Treg induction % DMSO): 110 to 130%

CC(O)CCO (stereo not shown) [butanediol, 1,3-butanediol]
Average CYP1A1 mRNA levels ([1]; Conc. 500.0 μM): − (− = +2-fold Vehicle)
% Change in TEER from DMSO ([4]; 100 μM + cytokines): − (≤125%: −)
% Change in TEER from DMSO ([4]; 0.5 mM + cytokines): − (≤125%: −)
IL6 % DMSO control [5]: = ((=) 90%≥ <110% DMSO)
ILβ % DMSO control [5]: = ((=) 90%≥ <110% DMSO)
TNFα % of DMSO control [5]: = ((=) 90%≥ <110% DMSO)

OCc1c[nH]c2ccccc12 [indole-3-carbinol]
Average CYP1A1 mRNA levels ([1]; Conc. 1000.0 μM): + (+ = >2-fold Vehicle)

c1ccc2[nH]ccc2c1 [indole]
Average CYP1A1 mRNA levels ([1]; Conc. 1000.0 μM): + (+ = >2-fold Vehicle)

— patent publication US10953027B2, “Active agents and methods of their use for the treatment of metabolic disorders and nonalcoholic fatty liver disease” (Flagship Pioneering Innovations V, Inc., priority 2018, dated 2021)
